From ChEMBL document CHEMBL1149608, “Pyrrolidinones as orally bioavailable antagonists of the human melanocortin-4 receptor with anti-cachectic activity” (Bioorg Med Chem, 2007)
Activity calls are given as the source filed them. The rule behind the calls is not given here.

Assays:
Melanocortin receptor 4 [1] = target: T1, Melanocortin receptor 4 (Homo sapiens, UniProt P32245); assay: Displacement of [125I]NDP-MSH from MC4R receptor in HEK293 cells; format: cell-based
Melanocortin receptor 4 [2] = target: T1, Melanocortin receptor 4; assay: Antagonist activity at human MC4 receptor in HEK293 cells assessed as inhibition of alpha-MSH stimulated cAMP production
in vivo [3] = conditions: C57BL/6J, mouse, iv, 5 mg/kg
in vivo [4] = conditions: C57BL/6J, mouse, plasma, po, 10 mg/kg
in vivo [5] = conditions: C57BL/6J, mouse, po, 10 mg/kg
in vivo [6] = conditions: C57BL/6J, mouse, po, 10 mg/kg; remark: listed apart in the source
in vivo [7] = conditions: C57BL/6J, mouse, brain, iv, 5 mg/kg
in vivo [8] = conditions: C57BL/6J, mouse, plasma, iv, 5 mg/kg
in vivo [9] = conditions: C57BL/6J, mouse, po, 10 mg/kg; remark: listed apart in the source
in vivo [10] = conditions: C57BL/6J, mouse, plasma, iv, 5 mg/kg; remark: listed apart in the source
Melanocortin receptor 3 = Melanocortin receptor 3 (Homo sapiens, UniProt P41968); assay: Displacement of [125I]NDP-MSH from MC3R receptor in HEK293 cells; format: cell-based
in vivo [11] = conditions: C57BL/6J, mouse, brain, iv, 5 mg/kg; remark: listed apart in the source
[12] = AUC (0 to 24 hrs) in brain of C57BL/6J mouse at 5 mg/kg, iv; format: ADME, organism-based; design: time < 24 hr, dose 5 mg/kg, route intravenous
in vivo [13] = conditions: C57BL/6J, mouse, iv, 5 mg/kg; remark: listed apart in the source
physchem = conditions: octanol/water
in vivo [14] = conditions: C57BL/6J, mouse, brain, iv, 5 mg/kg; remark: listed apart in the source
Melanocortin receptor 5 = Melanocortin receptor 5 (Homo sapiens, UniProt P33032); assay: Displacement of [125I]NDP-MSH from MC5R receptor in HEK293 cells; format: cell-based
[15] = target: Melanocyte-stimulating hormone receptor (Homo sapiens) (UniProt Q01726); assay: Displacement of [125I]NDP-MSH from MC1R receptor in HEK293 cells; format: cell-based
in vivo [16] = conditions: C57BL/6J, mouse, brain, iv, 5 mg/kg; remark: listed apart in the source
Mus musculus [17] = assay: Increase in lean body mass in LLC-tumor bearing C57BL/6J mouse at 3 mg/kg, ip; format: functional; conditions: route intraperitoneal
Mus musculus [18] = assay: Increase in fat mass in LLC-tumor bearing C57BL/6J mouse at 9 mg/kg, ip; format: functional; conditions: route intraperitoneal
Mus musculus [19] = assay: Increase in fat mass in LLC-tumor bearing C57BL/6J mouse at 3 mg/kg, ip; format: functional; conditions: route intraperitoneal
Melanocortin receptor 4 [20] = target: Melanocortin receptor 4 (Rattus norvegicus, UniProt P70596); assay: Binding affinity to rat MC4 receptor
Mus musculus [21] = assay: Increase in food intake in LLC-tumor bearing C57BL/6J mouse at 9 mg/kg, ip relative to control; format: functional, organism-based; design: dose 9 mg/kg
Mus musculus [22] = assay: Increase in body weight in LLC-tumor bearing C57BL/6J mouse at 9 mg/kg, ip; format: functional, organism-based; design: dose 9 mg/kg
[23] = target: Growth hormone secretagogue receptor type 1 (Homo sapiens, UniProt Q92847); assay: Agonist activity at ghrelin receptor; format: functional
Mus musculus [24] = assay: Increase in food intake in LLC-tumor bearing C57BL/6J mouse at 3 mg/kg, ip relative to control; format: functional, organism-based; design: dose 3 mg/kg
Mus musculus [25] = assay: Increase in body weight in LLC-tumor bearing C57BL/6J mouse at 3 mg/kg, ip; format: functional, organism-based; design: dose 3 mg/kg
Melanocortin receptor 4 [26] = target: Melanocortin receptor 4 (Mus musculus, UniProt P56450); assay: Binding affinity to C57BL/6J mouse MC4 receptor
Mus musculus [27] = assay: Increase in lean body mass in LLC-tumor bearing C57BL/6J mouse at 9 mg/kg, ip; format: functional; conditions: route intraperitoneal

Chain of Melanocortin receptor 5 (P33032 whole entry): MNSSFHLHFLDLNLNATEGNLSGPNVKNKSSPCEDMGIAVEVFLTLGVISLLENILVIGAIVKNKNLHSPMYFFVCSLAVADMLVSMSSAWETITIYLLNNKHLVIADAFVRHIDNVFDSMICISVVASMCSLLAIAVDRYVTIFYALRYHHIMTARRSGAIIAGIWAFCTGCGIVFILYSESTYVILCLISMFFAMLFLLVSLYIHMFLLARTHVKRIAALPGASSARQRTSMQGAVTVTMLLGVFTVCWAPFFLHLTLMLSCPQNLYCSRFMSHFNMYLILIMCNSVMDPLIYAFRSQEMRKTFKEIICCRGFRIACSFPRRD
T1 sequence (P32245 whole entry): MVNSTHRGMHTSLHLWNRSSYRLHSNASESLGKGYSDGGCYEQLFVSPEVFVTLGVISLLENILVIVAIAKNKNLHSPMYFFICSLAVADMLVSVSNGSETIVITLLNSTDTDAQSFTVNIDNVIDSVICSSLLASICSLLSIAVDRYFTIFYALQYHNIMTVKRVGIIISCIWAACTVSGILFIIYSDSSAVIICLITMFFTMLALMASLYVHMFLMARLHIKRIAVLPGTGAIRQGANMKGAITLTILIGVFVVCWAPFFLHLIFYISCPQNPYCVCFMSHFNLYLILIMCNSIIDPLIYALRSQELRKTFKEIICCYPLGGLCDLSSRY
Chain of Melanocortin receptor 3 (P41968 whole entry): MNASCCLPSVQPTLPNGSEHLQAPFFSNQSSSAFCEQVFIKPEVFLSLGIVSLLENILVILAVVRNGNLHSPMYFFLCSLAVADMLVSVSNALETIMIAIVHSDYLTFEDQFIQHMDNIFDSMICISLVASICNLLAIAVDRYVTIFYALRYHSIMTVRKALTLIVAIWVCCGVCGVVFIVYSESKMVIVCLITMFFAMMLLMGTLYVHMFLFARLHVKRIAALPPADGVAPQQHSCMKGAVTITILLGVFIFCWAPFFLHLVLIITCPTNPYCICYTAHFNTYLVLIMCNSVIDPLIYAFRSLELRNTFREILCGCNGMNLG
Chain of Melanocyte-stimulating hormone receptor (Homo sapiens) (Q01726 whole entry, looked up): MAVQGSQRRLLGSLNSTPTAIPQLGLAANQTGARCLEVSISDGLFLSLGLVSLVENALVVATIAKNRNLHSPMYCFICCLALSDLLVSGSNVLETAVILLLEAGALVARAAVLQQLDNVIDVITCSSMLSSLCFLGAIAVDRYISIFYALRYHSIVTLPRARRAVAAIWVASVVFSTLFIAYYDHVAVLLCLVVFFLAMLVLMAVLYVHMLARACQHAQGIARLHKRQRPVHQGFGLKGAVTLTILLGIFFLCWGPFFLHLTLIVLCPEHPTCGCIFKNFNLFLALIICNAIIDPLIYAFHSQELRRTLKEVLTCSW
Chain of Growth hormone secretagogue receptor type 1 (Q92847 whole entry): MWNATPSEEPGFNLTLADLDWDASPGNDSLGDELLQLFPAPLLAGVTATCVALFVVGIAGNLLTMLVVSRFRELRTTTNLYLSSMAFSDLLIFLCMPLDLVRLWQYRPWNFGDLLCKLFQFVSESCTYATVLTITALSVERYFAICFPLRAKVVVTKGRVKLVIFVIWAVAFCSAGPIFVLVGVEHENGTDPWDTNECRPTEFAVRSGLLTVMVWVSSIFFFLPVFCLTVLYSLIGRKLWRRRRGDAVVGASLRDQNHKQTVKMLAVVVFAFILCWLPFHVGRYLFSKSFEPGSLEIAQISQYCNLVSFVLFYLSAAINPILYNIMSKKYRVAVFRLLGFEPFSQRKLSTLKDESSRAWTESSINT
Chain of Melanocortin receptor 4 (Mus musculus, UniProt P56450) (P56450 whole entry): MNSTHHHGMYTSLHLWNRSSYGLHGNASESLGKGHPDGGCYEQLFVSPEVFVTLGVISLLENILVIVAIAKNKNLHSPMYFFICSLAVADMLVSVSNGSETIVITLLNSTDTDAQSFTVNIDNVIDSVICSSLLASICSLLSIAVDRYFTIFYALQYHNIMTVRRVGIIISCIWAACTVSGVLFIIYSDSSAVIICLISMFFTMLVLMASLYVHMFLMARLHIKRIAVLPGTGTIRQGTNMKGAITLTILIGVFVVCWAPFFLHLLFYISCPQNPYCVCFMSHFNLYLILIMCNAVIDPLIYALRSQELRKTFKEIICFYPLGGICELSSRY
Chain of Melanocortin receptor 4 (Rattus norvegicus, UniProt P70596) (P70596 whole entry): as the sequence (P56450 whole entry) above, with Y21H, P36S, S199T, T239A, S329P, S330G counted along it

CC(C)C[C@H](N)c1cc(C(F)(F)F)ccc1N1CCN(C(=O)[C@H](N)Cc2ccc(Cl)cc2Cl)CC1
Ki (Melanocortin receptor 4 [1]): 39 nM | Activity (Melanocortin receptor 4 [2]): Dose-dependent effect

CC(C)C[C@H](N)c1cc(C(F)(F)F)ccc1N1CCN(C(=O)[C@@H](Cc2ccc(Cl)cc2Cl)NC(=O)C2CCNCC2)CC1
Ki (Melanocortin receptor 4 [1]): 0.8 nM | Activity (Melanocortin receptor 4 [2]): Dose-dependent effect

CC(C)C[C@H](N)c1cc(C(F)(F)F)ccc1N1CCN(C(=O)[C@@H](Cc2ccc(Cl)cc2Cl)N2CCNCC2=O)CC1
Vd (in vivo [3]): 13 L/kg | AUC (in vivo [4]): 1530 ng·h/mL | Tmax (in vivo [5]): 0.5 h | bioavailability (in vivo [6]): 19.4% | concentration at 1 h (in vivo [7]): 41 ng/g | AUC (in vivo [8]): 3940 ng·h/mL | Cmax (in vivo [9]): 214 ng/mL | clearance (in vivo [10]): 20 mL/min/kg | Ki (Melanocortin receptor 3): 950 nM | Kp at 4 h (in vivo [11]): 0.24 | AUC(0-t) at 24 h [12]: 1260 ng/g.hr | half-life (in vivo [13]): 7.7 h | logD (physchem): 2.8 | concentration at 4 h (in vivo [14]): 46 ng/g | Ki (Melanocortin receptor 4 [1]): 4.5 nM | Ki (Melanocortin receptor 5): 360 nM | Activity [15]: 23% | Kp at 1 h (in vivo [16]): 0.07 | IC50 (Melanocortin receptor 4 [2]): 210 nM

CC(=O)N[C@H](Cc1ccc(Cl)cc1Cl)C(=O)N1CCN(c2ccc(F)cc2[C@H](N)CC(C)C)CC1
Ki (Melanocortin receptor 4 [1]): 26 nM | Activity (Melanocortin receptor 4 [2]): Dose-dependent effect

CC(=O)N[C@H](Cc1ccc(Cl)cc1Cl)C(=O)N1CCN(c2c(F)cccc2[C@@H](N)CC(C)C)CC1
Ki (Melanocortin receptor 4 [1]): 7.5 nM | Activity (Melanocortin receptor 4 [2]): Dose-dependent effect

CC(C)C[C@H](N)c1cc(C(F)(F)F)ccc1N1CCN(C(=O)[C@@H](Cc2ccc(Cl)cc2)N2CCCC2=O)CC1
Activity (Mus musculus [17]): 20% | Vd (in vivo [3]): 5.8 L/kg | AUC (in vivo [4]): 2270 ng·h/mL | Activity (Mus musculus [18]): 10% | Tmax (in vivo [5]): 0.5 h | bioavailability (in vivo [6]): 42.4% | concentration at 1 h (in vivo [7]): 484 ng/g | Activity (Mus musculus [19]): 10% | AUC (in vivo [8]): 2680 ng·h/mL | Cmax (in vivo [9]): 270 ng/mL | clearance (in vivo [10]): 31 mL/min/kg | Ki (Melanocortin receptor 3): 1800 nM | Kp at 4 h (in vivo [11]): 0.81 | Ki (Melanocortin receptor 4 [20]): 9.1 nM | half-life (in vivo [13]): 2.2 h | logD (physchem): 3.1 | Activity (Mus musculus [21]): Active | concentration at 4 h (in vivo [14]): 154 ng/g | Activity (Mus musculus [22]): Active | EC50 [23]: 4100 nM | Intrinsic activity [23]: 47% | Ki (Melanocortin receptor 4 [1]): 11 nM | Ki (Melanocortin receptor 5): 990 nM | Activity (Mus musculus [24]): Active | Activity (Mus musculus [25]): Active | Ki (Melanocortin receptor 4 [26]): 5.5 nM | Activity [15]: 31% | Kp at 1 h (in vivo [16]): 1.27 | IC50 (Melanocortin receptor 4 [2]): 510 nM | Activity (Mus musculus [27]): 20%

CC(C)C[C@H](N)c1cc(C(F)(F)F)ccc1N1CCN(C(=O)[C@@H](Cc2ccc(Cl)cc2Cl)NC(=O)CCN)CC1
Ki (Melanocortin receptor 4 [1]): 1 nM | Activity (Melanocortin receptor 4 [2]): Dose-dependent effect

CC(C)C[C@H](N)c1cccc(C(F)(F)F)c1N1CCN(C(=O)[C@@H](Cc2ccc(Cl)cc2Cl)NC(=O)CN)CC1
Ki (Melanocortin receptor 4 [1]): 3.3 nM | Activity (Melanocortin receptor 4 [2]): Dose-dependent effect

CC(C)C[C@H](N)c1cc(C(F)(F)F)ccc1N1CCN(C(=O)[C@@H](Cc2ccc(Cl)cc2Cl)NC(=O)CN)CC1
Ki (Melanocortin receptor 4 [1]): 1.8 nM | Activity (Melanocortin receptor 4 [2]): Dose-dependent effect

CC(C)C[C@H](N)c1cccc(F)c1N1CCN(C(=O)[C@@H](Cc2ccc(Cl)cc2Cl)NC(=O)CN)CC1
Ki (Melanocortin receptor 4 [1]): 3.3 nM | Activity (Melanocortin receptor 4 [2]): Dose-dependent effect

CC(=O)N[C@H](Cc1ccc(Cl)cc1Cl)C(=O)N1CCN(c2ccc(C(F)(F)F)cc2[C@@H](N)CC(C)C)CC1
Ki (Melanocortin receptor 4 [1]): 1.8 nM | Activity (Melanocortin receptor 4 [2]): Dose-dependent effect

CC(C)C[C@@H](N)c1cccc(F)c1N1CCN(C(=O)[C@@H](Cc2ccc(Cl)cc2Cl)NC(=O)CCN)CC1
Ki (Melanocortin receptor 4 [1]): 2.3 nM | Activity (Melanocortin receptor 4 [2]): Dose-dependent effect

CC(C)C[C@@H](N)c1cccc(C(F)(F)F)c1N1CCN(C(=O)[C@@H](Cc2ccc(Cl)cc2Cl)NC(=O)CN)CC1
Ki (Melanocortin receptor 4 [1]): 49 nM | Activity (Melanocortin receptor 4 [2]): Dose-dependent effect

CC(C)C[C@@H](N)c1cccc(C(F)(F)F)c1N1CCN(C(=O)[C@@H](Cc2ccc(Cl)cc2Cl)NC(=O)CCN)CC1
Ki (Melanocortin receptor 4 [1]): 29 nM | Activity (Melanocortin receptor 4 [2]): Dose-dependent effect

CC(C)C[C@@H](N)c1cc(C(F)(F)F)ccc1N1CCN(C(=O)[C@@H](Cc2ccc(Cl)cc2Cl)NC(=O)CCN)CC1
Ki (Melanocortin receptor 4 [1]): 10 nM | Activity (Melanocortin receptor 4 [2]): Dose-dependent effect

CC(C)C[C@H](N)c1ccccc1N1CCN(C(=O)[C@@H](Cc2ccc(Cl)cc2)N2CCCC2=O)CC1
Ki (Melanocortin receptor 4 [1]): 38 nM | Activity (Melanocortin receptor 4 [2]): Dose-dependent effect

CC(C)C[C@H](N)c1cc(C(F)(F)F)ccc1N1CCN(C(=O)[C@@H](Cc2ccc(Cl)cc2Cl)N2CCCC2=O)CC1
Activity [15]: 21%

CC(C)C[C@H](N)c1cccc(F)c1N1CCN(C(=O)[C@@H](Cc2ccc(Cl)cc2Cl)N2CCCC2=O)CC1
Activity (Melanocortin receptor 4 [2]): Dose-dependent effect

CC(C)C[C@H](N)c1cccc(F)c1N1CCN(C(=O)[C@@H](Cc2ccc(Cl)cc2Cl)NC(=O)CCN)CC1
Ki (Melanocortin receptor 3): 450 nM | Ki (Melanocortin receptor 4 [1]): 0.8 nM | Ki (Melanocortin receptor 5): 240 nM | Activity (Melanocortin receptor 4 [2]): Dose-dependent effect

CC(=O)N[C@H](Cc1ccc(Cl)cc1Cl)C(=O)N1CCN(c2c([C@H](N)CC(C)C)cccc2C(F)(F)F)CC1
Ki (Melanocortin receptor 4 [1]): 47 nM | Activity (Melanocortin receptor 4 [2]): Dose-dependent effect

CC(C)C[C@H](N)c1cc(C(F)(F)F)ccc1N1CCN(C(=O)[C@H](Cc2ccc(Cl)cc2)N2CCCC2=O)CC1
Ki (Melanocortin receptor 4 [1]): 8.8 nM | Activity (Melanocortin receptor 4 [2]): Dose-dependent effect

CC(C)C[C@@H](N)c1cccc(F)c1N1CCN(C(=O)[C@@H](Cc2ccc(Cl)cc2Cl)NC(=O)CN)CC1
Ki (Melanocortin receptor 4 [1]): 7.1 nM | Activity (Melanocortin receptor 4 [2]): Dose-dependent effect

CC(=O)N[C@H](Cc1ccc(Cl)cc1Cl)C(=O)N1CCN(c2c(F)cccc2[C@H](N)CC(C)C)CC1
Ki (Melanocortin receptor 4 [1]): 6 nM | Activity (Melanocortin receptor 4 [2]): Dose-dependent effect

CC(C)C[C@H](N)c1cccc(C(F)(F)F)c1N1CCN(C(=O)[C@@H](Cc2ccc(Cl)cc2Cl)NC(=O)CCN)CC1
Ki (Melanocortin receptor 4 [1]): 2.5 nM | Activity (Melanocortin receptor 4 [2]): Dose-dependent effect
